“Also recorded” adds a separate entry of the source.
Assays:
[1] = system: MAPK, ERK-1 (p44) and ERK-2 (p42); test: Estrogen-induced phosphorylation of MAPK in MCF-7 parental cells, Western blot; type: cell-based, human; conditions: for E2-induced rapid phosphorylation of ERK-1 and ERK-2 after pre-incubation: 1000 nM, in presence of estradiol (E2)
Description: ERD inhibition of phosphorylation of MAPK, at both extracellular signal-regulated kinases ERK-1 (p44) and ERK-2 (p42) and downstream effects. […] Thus, we measured estrogen-induced phosphorylation of MAPK by established methods (9,15,16). Briefly, MCF-7 parental cells were estrogen deprived for 48 hrs, then treated with 1 nM estradiol-17β in the presence of new compounds (10 nM-10 μM) to be tested for antagonist activity. After treatments, cell lysates were separated by SDS-PAGE followed by Western blot using a polyclonal antibody directed to phospho-p44/p42 MAP kinase (Thr202/Tyr204) (Cell Signaling). Immunodetection with antibody against total p44/p42 (Cell Signaling) was done as a control for gel loading. […] E2 but not vehicle (CN) induced rapid phosphorylation of ERK-1 (p44) and ERK-2 (p42). This activation was prevented when cells were pre-incubated with 1000 nM ICI 182,780 (ICI; Faslodex) or 1000 nM compound S15 in the presence of estradiol (E2).

ER protein = biological target: T1, ER protein (Homo sapiens, UniProt P03372); test: ER down-regulation, Western immunoblot of ER (66 kD) in MCF-7 cells; type: cell-based; conditions: 24 hours, 10, 100 and 1000 nM
T1 construct: endogenous in cells; host or cells: MCF-7 breast tumor cells
T1 sequence (P03372 1-595): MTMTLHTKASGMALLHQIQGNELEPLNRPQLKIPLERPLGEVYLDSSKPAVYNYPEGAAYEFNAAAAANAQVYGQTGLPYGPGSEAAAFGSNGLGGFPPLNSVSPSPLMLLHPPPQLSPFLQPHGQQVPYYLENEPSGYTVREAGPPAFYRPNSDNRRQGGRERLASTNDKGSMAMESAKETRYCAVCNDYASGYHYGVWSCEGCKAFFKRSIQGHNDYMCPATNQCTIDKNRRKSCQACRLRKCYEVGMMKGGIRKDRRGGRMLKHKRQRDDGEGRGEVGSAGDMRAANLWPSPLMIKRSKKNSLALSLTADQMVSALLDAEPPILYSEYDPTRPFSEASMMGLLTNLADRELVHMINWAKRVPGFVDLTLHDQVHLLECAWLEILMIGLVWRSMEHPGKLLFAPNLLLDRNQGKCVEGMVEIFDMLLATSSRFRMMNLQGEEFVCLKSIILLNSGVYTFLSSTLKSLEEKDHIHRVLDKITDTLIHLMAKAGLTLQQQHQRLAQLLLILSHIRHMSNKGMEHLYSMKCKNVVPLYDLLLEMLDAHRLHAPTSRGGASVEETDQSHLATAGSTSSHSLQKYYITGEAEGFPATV
From the text: ER down-regulation: To determine if selected compounds can down-regulate ER protein, we treated cells for 24-48 hrs in vitro with candidate compounds at varying doses. Then, cells were disrupted and prepared for PAGE and Western immunoblots using anti-ERα antibodies (see FIG. 6). […] Those ERDs with optimal activity in down-regulating ER were investigated further in the chemistry laboratory to further refine and develop such agents.

estrogen receptor = biological target: T2, estrogen receptor (Homo sapiens, UniProt P03372); test: Specific [3H]estradiol-17β binding in MCF-7 parental cells; conditions: 10 μM compound, 2 nM [3H]estradiol-17β
T2 construct: endogenous in cells; host or cells: MCF-7 parental breast cancer cells
T2 sequence (P03372 1-595): T1 sequence (P03372 1-595)
Description: Specific estradiol binding: Specific estradiol-17β (E2) binding was assessed in MCF-7 parental breast cancer cells as before (14-16). Briefly, cells were incubated with 2 nM [^3H]estradiol-17β and varying concentrations (1 nM-10 μM) of new estrogen receptor downregulator (ERD) analogues. The efficiency of the binding of compounds was measured by the loss of radioactivity of the [^3H]estradiol-17β. A 100-fold molar excess of unlabeled E2 was present with [3H]estradiol-17β in paired samples for determination of displaceable binding. […] Compounds S1-S14 are test compounds different from the exemplified compounds described herein.

estrogen receptor-alpha = biological target: T3, estrogen receptor-alpha (Homo sapiens, UniProt P03372); test: Western immunoblot of ERα protein levels in MCF-7 cells after 48 hrs; type: cell-based; conditions: 1 μM or 10 μM, in presence of 1 nM estradiol-17β
T3 construct: MCF-7 breast cancer cells with high expression of ERα protein were treated with estradiol-17β; endogenous in cells; host or cells: MCF-7 human breast cancer cells
T3 sequence (P03372 1-595): T1 sequence (P03372 1-595)

[2] = system: human MCF-7 breast cancer cells; test: MCF-7 cell proliferation, BrdU ELISA, in presence of 1 nM estradiol-17β; type: cell-based; conditions: for inhibition of MCF-7 cell proliferation/survival: 1 μM or 50 μM, in presence of 1 nM estradiol-17β, 72 hr; for effectiveness compared with fulvestrant in MCF-7 proliferation: same doses in vitro (1 μM or 50 μM)
Description: In experiments to assess potential proliferative effects of novel estrogen receptor ligands, human breast cancer cells were grown in phenol red-free, estrogen-free media with 1% dextran-coated charcoal-treated (DCC)-fetal bovine serum (FBS) for 48 hrs (15,44), then treated with either 1 μM or 50 μM doses of estrogen receptor antagonists in the presence of 1 nM estradiol-17β. Cell counts and viability tests (Trypan blue) were done every 24 hr for 3 days. After 72 hr, proliferation was assessed using the BrdU Cell proliferation ELISA (Roche). Cell numbers were also assessed initially by cell counts to confirm ELISA data. Each antiestrogen was tested at least in three different experiments.
In order to assess the antitumor action of novel estrogen receptor antagonists, we cultured human MCF-7 breast cancer cells with known expression of ERα. […] Cell proliferation is expressed as percentage of that determined in the 1 nM estradiol-17β-treated control group.

[3] = system: human non-small cell lung cancer cells A549; test: A549 non-small cell lung cancer cell proliferation, MTS assay; type: cell-based; conditions: 1 μM or 10 μM, 72 hours, compared with fulvestrant
Description: Cell counts and viability tests (Trypan blue) were done every 24 hours for 3 days. After 72 hours, proliferation was assessed using the CellTiter 96™ AQueous One Solution Cell Proliferation Assay (MTS) from Promega. Cell numbers were also assessed initially by cell counts to confirm ELISA data. Each antiestrogen was tested in at least in three independent experiments.

MCF-7/HER-2 cells = conditions: xenografts in nude mice; cited from earlier work
MCF-7 parental cells = conditions: xenografts in nude mice; cited from earlier work
[4] = clinic; cited from earlier work
ER+ early breast cancer = conditions: cited from earlier work

Row | SMILES | E2-induced rapid phosphorylation of ERK-1 and ERK-2 after pre-incubation [1] | ERα protein expression in MCF-7 cells (estrogen receptor-alpha) | inhibition of MCF-7 cell proliferation/survival [2] | effectiveness compared with fulvestrant in MCF-7 proliferation [2] | sensitivity of MCF-7/HER-2 tumors (MCF-7/HER-2 cells) | growth of parent MCF-7 tumors (MCF-7 parental cells) | other results
1 | C[C@]12C[C@H](Oc3ccc(N)cc3)[C@@H]3c4ccc(O)cc4CC[C@H]3[C@@H]1CC[C@@H]2O [JD105, (8S,9S,11S,13S,14S,17S)-11l-(4-aminophenoxy)-13-methyl-7,8,9,11,12,13,14,15,16,17-decahydro-6H-cyclopenta[a]phenanthrene-3,17-diol] | prevented |  |  |  |  |  | inhibition of estrogen-induced phosphorylation of MAPK (ERK-1 p44 and ERK-2 p42) ([1]; 1 nM estradiol-17β): inhibits phosphorylation of MAPK; effectiveness compared with fulvestrant in inhibiting estrogen-induced MAPK phosphorylation ([1]; breast tumor cells in vitro): as effective as fulvestrant; ER protein levels in MCF-7 cells (ER protein): reduces ER protein levels; suppression of specific binding of [3H]estradiol-17β (estrogen receptor): suppressed; suppression of specific binding of [3H]estradiol-17β (estrogen receptor; listed as S15): suppressed effectively
2 | C[C@]12C[C@H](Oc3ccc(N)c(C(F)(F)F)c3)[C@@H]3c4ccc(O)cc4CC[C@H]3[C@@H]1CC[C@@H]2O [JD128, (8S,9S,11S,13S,14S,17S)-11-(4-Amino-3-(trifluoromethyl)phenoxy)-13-methyl-7,8,9,11,12,13,14,15,16,17-decahydro-6H-cyclopenta[a]phenanthrene-3,17-diol] |  | greatest effect at suppressing estrogen receptor-alpha expression | significant inhibition | more effective than the ER-downregulator fulvestrant |  |  | 
3 | C[C@]12C[C@H](Oc3ccc(NC(=O)CCCCN4CCCCC4)c(F)c3)[C@@H]3c4ccc(O)cc4CC[C@H]3[C@@H]1CC[C@@H]2O [JD140, N-(4-(((8S,9S,11S,13S,14S,17S)-3,17-Dihydroxy-13-methyl-7,8,9,11,12,13,14,15,16,17-deca-hydro-6H-cyclopenta[a]phenanthren-11-yl)oxy)-2-fluorophenyl)-5-(piperidin-1-yl)pentan-amide] |  | down-regulated | significant inhibition | more effective than the ER-downregulator fulvestrant |  |  | antiproliferative effects in A549 cells [3]: significant antiproliferative effects
4 | C[C@]12CC[C@@H]3c4ccc(O)cc4C[C@@H](CCCCCCCCC[S+]([O-])CCCC(F)(F)C(F)(F)F)[C@H]3[C@@H]1CC[C@@H]2O (stereo partly drawn) [fulvestrant] | prevented |  |  |  | partially sensitive | suppressed | bioavailability [4]: very low bioavailability; also recorded: low bioavailability
5 | CC/C(=C(\c1ccccc1)c1ccc(OCCN(C)C)cc1)c1ccccc1 [tamoxifen] |  |  |  |  | insensitive | suppressed | reduction in disease recurrence (ER+ early breast cancer): 39%; reduction in mortality (ER+ early breast cancer): 31%
